The target in the assay is T1, angiotensin converting enzyme (Oryctolagus cuniculus, UniProt P12822).
T1 sequence (P12822 34-1310): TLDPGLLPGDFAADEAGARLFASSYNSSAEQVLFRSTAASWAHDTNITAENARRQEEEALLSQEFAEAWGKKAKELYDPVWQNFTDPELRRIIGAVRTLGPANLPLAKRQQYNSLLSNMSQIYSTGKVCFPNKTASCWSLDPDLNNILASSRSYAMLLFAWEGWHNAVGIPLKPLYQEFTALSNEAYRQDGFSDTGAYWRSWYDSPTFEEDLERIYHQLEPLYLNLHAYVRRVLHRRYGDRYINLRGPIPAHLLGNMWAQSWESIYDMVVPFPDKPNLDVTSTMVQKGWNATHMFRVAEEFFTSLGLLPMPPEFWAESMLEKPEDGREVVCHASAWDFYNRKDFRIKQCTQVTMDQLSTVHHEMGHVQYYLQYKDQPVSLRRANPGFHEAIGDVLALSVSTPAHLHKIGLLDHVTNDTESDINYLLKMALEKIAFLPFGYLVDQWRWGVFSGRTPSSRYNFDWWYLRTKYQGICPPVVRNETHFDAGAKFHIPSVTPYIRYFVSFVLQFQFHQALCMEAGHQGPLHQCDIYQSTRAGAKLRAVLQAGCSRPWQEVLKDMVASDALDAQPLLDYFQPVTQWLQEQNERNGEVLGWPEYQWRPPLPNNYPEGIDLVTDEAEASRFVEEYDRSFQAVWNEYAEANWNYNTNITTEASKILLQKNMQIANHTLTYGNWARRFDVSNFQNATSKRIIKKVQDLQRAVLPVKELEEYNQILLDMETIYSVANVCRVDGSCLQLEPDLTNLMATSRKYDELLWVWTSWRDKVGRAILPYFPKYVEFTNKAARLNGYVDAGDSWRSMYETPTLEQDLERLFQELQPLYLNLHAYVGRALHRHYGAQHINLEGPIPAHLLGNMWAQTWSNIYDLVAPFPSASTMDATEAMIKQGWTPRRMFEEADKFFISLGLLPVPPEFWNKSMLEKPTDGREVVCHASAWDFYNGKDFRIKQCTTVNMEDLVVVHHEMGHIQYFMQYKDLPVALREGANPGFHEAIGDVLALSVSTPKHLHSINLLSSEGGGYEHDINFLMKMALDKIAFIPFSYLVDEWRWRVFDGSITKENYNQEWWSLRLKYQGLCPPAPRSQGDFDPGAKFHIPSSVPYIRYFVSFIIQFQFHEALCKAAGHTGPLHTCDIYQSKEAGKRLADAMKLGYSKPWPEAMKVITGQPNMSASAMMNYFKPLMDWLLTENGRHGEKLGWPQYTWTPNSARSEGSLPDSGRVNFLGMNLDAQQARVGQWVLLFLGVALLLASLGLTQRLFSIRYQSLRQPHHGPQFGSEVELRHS
Briefly: in vitro inhibition of angiotensin converting enzyme (cleavage of hippuryl-histidyl-leucine). Format: biochemical. The settings on record: substrate hippuryl-histidyl-leucine 2 mM; potassium phosphate buffer pH 8.3, 100 mM; NaCl 300 mM; 24 minutes at 37° C. The procedure: The activity of the compounds of formula I and the aforementioned salts in inhibiting angiotensin converting enzyme in vitro can be determined by the following test.
The method used is based on the method of Cushman and Cheung (Biochem. Pharmacol., 20. 1637-1648) incorporating the modifications introduced by Hayakari et al (Anal. Biochem., 84. 361-369). The substrate, which is hippuryl-histidyl-leucine, 2 mM, is incubated with angiotensin converting enzyme in the presence or absence of various concentrations of test substance in potassium phosphate buffer (pH 8.3; 100 mM) containing sodium chloride (300 mM) for 24 minutes at 37° C. (total value 500 μl). If the test substance is an ester, it is appropriate to cleave it by means of hog liver esterase before carrying out the test. The reaction is terminated by the addition of 3 ml of potassium phosphate buffer (pH 8.3; 200 mM) at 0° C. 2,4,6-Trichloro-s-triazine (3%) in 1.5 ml of dioxane and the mixture is agitated until the yellow chromophore has developed fully. The samples are then centrifuged to remove any precipitate which has formed. The yellow chromophore formed by the reaction of the 2,4,6-trichloro-s-triazine with free hippuric acid is measured spectrophoto metrically at 382 nm. The IC50 values are defined as the concentration of test substance which reduces by 50% the cleavage of hippuryl-histidyl-leucine by antiotensin converting enzyme under the aforementioned conditions.
The results obtained in the foregoing test using representative compounds of formula I as the test substance are compiled in the following Table: […]

Compound `O=C(O)[C@@H]1CCCN2C(=O)CC[C@H](CS)C(=O)N12` [Compound A, octahydro-9(S)-mercaptomethyl-6,10-dioxo-6H-pyridazo[1,2-a][1,2]diazepine-1(S)-carboxylic acid] showed an IC50 of 0.004 µM.

For `O=C(O)[C@@H]1CCCN2C(=O)CN(Cc3ccccc3)C(CS)C(=O)N12` (single isomer, unassigned) [Compound D], the IC50 came out at 0.051 µM.

`O=C(O)[C@@H]1CCCN2CCC[C@H](CS)C(=O)N12` [Compound B, octahydro-9(S)-mercaptomethyl-10-oxo-pyridazo[1,2-a][1,2]diazepine-1(S)-carboxylic acid] gave an IC50 of 0.0026 µM.

Regarding `O=C(O)[C@@H]1CCCN2C(=O)CCCC(CS)C(=O)N12` (stereo partly drawn) [Compound C, decahydro-10(R,S)-mercaptomethyl-6,11-dioxo-6H-pyridazo[1,2-a][1,2]diazocine-1(S)-carboxylic acid], inhibition was half-maximal at 0.019 µM (IC50).

As usually defined, the IC50 is the concentration that gives 50% inhibition.

(Values after patent US4692438A, “Pyridazo-diazepines, diazocines, and -triazepines having anti-hypertensive activity” (Hoffmann-La Roche Inc., priority 1984, dated 1987).)
